Reference: publication PMC10304164, “Laurequinone, a Lead Compound against Leishmania” (Marine Drugs, 2023)
Where two headings read alike, the source gives them in different places.

Assays:
[1] = tested on: L. amazonensis intracellular amastigotes; test: Alamar Blue assay against intracellular amastigotes in murine macrophages; type: cell-based; settings: Leishmania amazonensis, Macrophage; intracellular amastigotes of L. amazonensis
Protocol: Briefly, in a 96-well plate, murine macrophages (2 × 10^5 cells/mL) were incubated in RPMI medium at 37 °C and 5 % CO2 atmosphere for 2–4 h. Promastigote forms of L. amazonensis (2 × 10^6 cells/mL) were added to reach a 1:10 macrophage:parasite ration, and after 24 h of incubation, the cells were washed to discard the not-introduced parasites. Serial dilutions of the compound were added in 100 µL of RPMI medium. Following 24 h of incubation, the plate was washed, and the cells were broken with SDS 0.05% for 30 s. Fresh medium was added, and 48 h later, 10% Alamar Blue® reagent was added.

[2] = Cytotoxic activity, Alamar Blue; type: cell-based; settings: mouse, murine macrophages J774A.1, 24 h
Protocol: Murine macrophages (J774A.1) ATCC TIB-67 were cultured in RPMI, supplemented with 10% FBS at 37 °C and 5 % CO2 atmosphere.
In a 96-well plate, macrophages (2 × 10^5 cells/mL) were added. After completing the adherence (2–4 h), macrophages were incubated with serial dilutions of compounds 1–5. […] The selectivity index (SI) was calculated as the ratio of CC50 and IC50 [38].

[3] = tested on: Leishmania amazonensis promastigotes; test: Alamar Blue assay against promastigotes; type: cell-based; settings: L. amazonensis promastigotes
Protocol: Leishmania amazonensis (MHOM/BR/77/LTB0016) promastigotes were cultured in RPMI 1640 medium (Gibco, Waltham, MA, USA), supplemented with 10 % FBS at 26 °C. Additionally, for maintenance, the promastigotes were cultured in SND medium (Sigma-Aldrich, Darmstadt, Germany) supplemented with 10 % FBS at 26 °C. Both media were supplemented with gentamicin at 10 µg/mL.
Compounds 1–5 were tested against promastigotes of Leishmania amazonensis using the colorimetric assay based on the Alamar Blue® reagent. In a 96-well plate, serial dilutions of the compounds and the promastigote form of the parasite (10^6 cells/mL) were added at a final volume of 200 µL.

[4] = tested on: L. amazonensis promastigotes; test: Plasma membrane permeability (SYTOX Green); type: cell-based, Leishmania amazonensis; settings: 24 h incubation with IC90
Protocol: (§1) After incubation for 24 h at 26 °C, samples were centrifuged (3000 rpm, 10 min, 4 °C) and resuspended in 50 µL of PBS buffer. Different events involved in parasite cell death were studied following the manufacturer’s instructions for each kit.
The SYTOX Green assay (Life Technologies, Madrid, Spain) was used to determine the damage in the plasma membrane permeability of treated cells. Parasites were incubated for 24 h with the compound and the stain was added and incubated for 15 min. […] Triton X-100, a well-known non-ionic surfactant, was added at 0.5% for 3 h before staining, as a positive control.

[5] = tested on: L. amazonensis promastigotes; test: Phosphatidylserine externalization (annexin V/PI, TALI cytometer); type: cell-based, Leishmania amazonensis; settings: 24 h incubation with IC90
Protocol: as §1
A double-staining assay with annexin V/propidium iodide (PI) was performed using the Tali® Apoptosis Kit–Annexin V Alexa Fluor® 488 (Invitrogen^TM, Waltham, MA, USA). Briefly, after incubating the treated parasites for 24 h, they were washed with the buffer and incubated with annexin V for 20 min. Promastigotes were centrifuged and resuspended in buffer containing PI and incubated for 3 min. Finally, the stained cells were loaded into a slide and inserted in a TALI^TM image-based cytometer (Life Technologies, Carlsbad, CA, USA). Data were expressed in percentages, divided into three groups: apoptotic cells (green fluorescence), dead cells (red or red and green fluorescence), and live cells (no fluorescence), provided by TALI® data acquisition and analysis software (Life Technologies).

[6] = tested on: L. amazonensis promastigotes; test: Reactive oxygen species analysis (CellROX Deep Red); type: cell-based, Leishmania amazonensis; settings: 24 h incubation with IC90
Protocol: as §1
Oxidative stress is the result of an imbalance between the production of reactive oxygen species (ROS) and the cells’ ability to remove them. The CellROX® Deep Red Reagent (ThermoFisher Scientific, Waltham, MA, USA) was used to measure the oxidative stress. […] Treated parasites were incubated and resuspended in the buffer, the kit was added, and the plate was incubated for 30 min at 26 °C in the dark. Oxidative stress is represented as red fluorescence in the images obtained with the Cy5 light cube (excitation 644 nm/emission 665 nm) of the EVOS® FL Cell Imaging System (ThermoFisher Scientific, Waltham, MA, USA). Untreated parasites were used as a negative control, and hydrogen peroxide (600 mM) was used as a positive control.

[7] = tested on: Leishmania amazonensis promastigotes; test: ATP level analysis (CellTiter-Glo); type: cell-based; settings: 24 h incubation with IC90, compared to untreated parasites
Protocol: as §1
ATP levels were measured using the CellTiter-Glo® Luminescent Cell Viability Assay kit (Promega, Fitchburg, WI, USA) and the EnSpire Multimode Plate Reader® (PerkinElmer, Waltham, MA, USA). After 24 h of incubation with laurequinone (1), the pellet was resuspended in the buffer and the kit. After 2 min of agitation and 10 min of incubation at room temperature in the dark, the luminescence was measured with the EnSpire Multimode Plate Reader®. The results were plotted against the negative control of untreated cells. Sodium azide (20 mM) was added as a positive control.

[8] = tested on: L. amazonensis promastigotes; test: Chromatin condensation analysis (Hoechst 33342/PI); type: cell-based, Leishmania amazonensis; settings: promastigotes treated with IC90, Hoechst/PI
Protocol: as §1
The Invitrogen Chromatin Condensation/Dead Cell Apoptosis Kit, Hoechst 33342/propidium iodide (PI), was used to determine whether chromatin condensation was produced in the treated parasites. After adding the kit, the parasites were incubated for 30 min at 26 °C in the dark. The results were observed under the EVOS fluorescence microscope using DAPI (excitation 350 nm/emission 461 nm for Hoechst) and RFP (excitation 535 nm/emission 617 nm for PI) light cubes. The obtained images were divided into three types of results: low fluorescence of both stains when the cells were alive, intense fluorescence when the cell had condensed chromatin (programmed cell death), and intense red fluorescence when the cell had died.

[9] = tested on: Leishmania amazonensis promastigotes; test: Mitochondrial membrane potential analysis (JC-1); type: cell-based; settings: 24 h incubation with IC90, JC-1
Protocol: as §1
The JC-1 Mitochondrial Membrane Potential Assay Kit® (Cayman Chemical, Ann Arbor, MI, USA) was used to determine whether an alteration in the mitochondrial potential occurred during cell death. The parasites treated with laurequinone were incubated with the staining solution for 20 min at 26 °C in the dark. Green and red fluorescence were measured using the EnSpire Multimode Plate Reader® (PerkinElmer). The results were expressed as the percentage relative to the untreated cells of the red (J-aggregates 540/570 nm)/green ratio (J-monomers 485/535 nm). The membrane-permeant JC-1 dye is widely used in apoptosis studies to monitor mitochondrial health. […] Consequently, mitochondrial depolarization is indicated by a decrease in the red/green fluorescence intensity ratio. Sodium azide (20 mM) was added as a positive control.

[10] = tested on: L. donovani axenic amastigotes; design: method as in PMID 21717278; settings: L. donovani axenic amastigotes ref 32; cited from earlier work
[11] = tested on: L. donovani promastigotes; design: method as in PMID 21717278; settings: L. donovani promastigotes ref 32; cited from earlier work
trypanothione reductase = tested on: trypanothione reductase; design: method as in PMID 21717278; settings: cited from earlier work
[12] = 72 h total, read-out: IC50 Promastigotes
[13] = Leishmania amazonensis, 72 h, 72 h total, read-out: IC50 Promastigotes

| IC50 [1] [µM] | IC50 [3, 12] [µM] | SMILES | CC50 at 24 h ([2]; J774A.1 macrophages) [µM] | IC50 [3, 13] [µM] | CC50 at 24 h [2] [µM] | further results |
| --- | --- | --- | --- | --- | --- | --- |
| 24.3 ± 5.09 | 12.48 ± 0.05 | Cc1ccc([C@]2(C)CC[C@@H]3C[C@@]32C)c(O)c1 [Debromolaurinterol (3), debromolaurinterol] | 70.1 ± 12.9 | < 15 |  |  |
| 16.7 ± 6.08 | 1.87 ± 0.17 | CC1=CC(=O)C([C@]2(C)CC[C@@H]3C[C@@]32C)=CC1=O [Laurequinone (1), laurequinone] | 42.1 ± 1.3 | < 2 |  | plasma membrane permeability (SYTOX Green fluorescence) [4]: no significant green fluorescence was observed; cell population with exposed phosphatidylserine residues [5]: approximately 30%; ROS accumulation (CellROX Deep Red fluorescence) [6]: noticeable increase in visual fluorescence of CellROX Deep Red; ATP levels [7]: no change in ATP levels; chromatin condensation [8]: no chromatin condensation was observed; IC50 ([3]; Leishmania amazonensis, expressed in µg/mL, read-out: IC50): 0.43 µg/mL; mitochondrial membrane potential (ΔΨm) [9]: significant decrease in mitochondrial membrane potential |
| 3.12 ± 0.29 |  | CCCCCCCCCCCCCCCCOP(=O)([O-])OCC[N+](C)(C)C [Miltefosine, miltefosine, reference compound] | 72.2 ± 3.07 | 6.48 ± 0.25 |  |  |
|  |  | Cc1cc2c(cc1Br)[C@]1(C)CC[C@H](C)[C@]1(C)O2 [Aplysin (5), aplysin] |  | 54.1 | 1100 ± 40.6 |  |
|  |  | CC1=CC(=O)c2c(O)cccc2C1=O [Plumbagin] |  |  |  | IC50 [10]: 0.21 µM; IC50 [11]: 0.34 µM; mechanism of action on trypanothione reductase (trypanothione reductase): non-competitive inhibition of trypanothione reductase |

| SMILES | IC50 [1] [µM] | IC50 [3, 12] [µM] | CC50 at 24 h ([2]; J774A.1 macrophages) [µM] | IC50 [3, 13] [µM] | CC50 at 24 h [2] [µM] | further results |
| --- | --- | --- | --- | --- | --- | --- |
| Cc1cc(O)c([C@]2(C)CC[C@@H]3C[C@@]32C)cc1Br [Laurinterol (2), laurinterol] | 34.7 ± 4.06 |  |  | 34.5 ± 6.44 | 80.1 ± 7.79 |  |
| C=C1[C@@H](C)CC[C@@]1(C)c1cc(Br)c(C)cc1O [Isolaurinterol (4), isolaurinterol] |  | 10.1 ± 1.69 |  | < 15 | 24.6 ± 2.37 |  |
